Paper PMC12931196, “Vm–MSI: a Vancomycin–Antimicrobial Peptide Conjugate Combating Resistant Bacteria and Broadening the Antimicrobial Spectrum” (Advanced Science, 2025)
Where two headings read alike, the source gives them in different places. Ends that are not written are not given here.

How the values were obtained:
[1] = tested on: S. aureus CMCC26003
[2] = tested on: S. aureus ATCC29213
[3] = tested on: MRSA ATCC43300
[4] = tested on: S. aureus 15772
[5] = tested on: S. aureus 15192
[6] = tested on: VRSA 11
[7] = tested on: VRSA 52
[8] = tested on: E. faecalis ATCC29212
[9] = tested on: E. coli ATCC25922
[10] = tested on: A. baumannii ATCC19606
[11] = tested on: K. pneumoniae 9883
[12] = tested on: P. aeruginosa ATCC27853
[13] = tested on: S. typhimurium ATCC14028

Row | Compound | MIC ([1]; CMCC26003, 18 h) | MIC ([2]; ATCC29213, 18 h) | MIC ([3]; ATCC43300, 18 h) | MIC ([4]; 15772, 18 h) | MIC ([5]; 15192, 18 h) | MIC ([6]; 11, 18 h) | MIC ([7]; 52, 18 h) | MIC ([8]; ATCC29212, 18 h) | MIC ([9]; ATCC25922, 18 h) | MIC ([10]; ATCC19606, 18 h) | MIC ([11]; 9883, 18 h) | MIC ([12]; ATCC27853, 18 h) | MIC ([13]; ATCC14028, 18 h) | further results
1 | RRIRPRPPRLPRPRPRP [Bac-7] | 37.5(17.27) µg mL^−1 | >100(>46.0) µg mL^−1 | 9.38(4.32) µg mL^−1 | 75(34.53) µg mL^−1 | 75(34.53) µg mL^−1 | 75(34.53) µg mL^−1 | 75(34.53) µg mL^−1 | 18.75(8.63) µg mL^−1 | 18.75(8.63) µg mL^−1 | >100(>46.0) µg mL^−1 | 9.38(4.32) µg mL^−1 | >100(>46.0) µg mL^−1 | 75(34.53) µg mL^−1 | –
2 | CC[C@H](C)[C@H](NC(=O)[C@H](CCCNC(=N)N)NC(=O)[C@H](CCCNC(=N)N)NC(=O)[C@@H](N)CSC1CC(=O)N(CC2CCC(C(=O)N(C)[C@H](CC(C)C)C(=O)N[C@H]3C(=O)N[C@@H](CC(N)=O)C(=O)N[C@H]4C(=O)N[C@H]5C(=O)N[C@H](C(=O)N[C@H](C(=O)O)c6cc(O)cc(O)c6-c6cc5ccc6O)[C@H](O)c5ccc(c(Cl)c5)Oc5cc4cc(c5O[C@@H]4O[C@H](CO)[C@@H](O)[C@H](O)[C@H]4O[C@H]4C[C@](C)(N)[C@H](O)[C@H](C)O4)Oc4ccc(cc4Cl)[C@H]3O)CC2)C1=O)C(=O)N[C@@H](CCCNC(=N)N)C(=O)N1CCC[C@H]1C(=O)N[C@@H](CCCNC(=N)N)C(=O)N1CCC[C@H]1C(=O)N1CCC[C@H]1C(=O)N[C@@H](CCCNC(=N)N)C(=O)N[C@@H](CC(C)C)C(=O)N1CCC[C@H]1C(=O)N[C@@H](CCCNC(=N)N)C(=O)N1CCC[C@H]1C(=O)N[C@@H](CCCNC(=N)N)C(=O)N1CCC[C@H]1C(=O)N[C@@H](CCCNC(=N)N)C(=O)N1CCC[C@H]1C(=O)O (some centres unmarked) [Vm-Bac] | 0.78(0.20) µg mL^−1 | 2.34(0.59) µg mL^−1 | 2.34(0.59) µg mL^−1 | 2.34(0.59) µg mL^−1 | 1.17(0.30) µg mL^−1 | 18.75(4.76) µg mL^−1 | 18.75(4.76) µg mL^−1 | 18.75(4.76) µg mL^−1 | 18.75(4.76) µg mL^−1 | 18.75(4.76) µg mL^−1 | >100(>25.4) µg mL^−1 | >100(>25.4) µg mL^−1 | 37.5(9.52) µg mL^−1 | –
3 | GWGSFFKKAAHVGKHVGKAALTHYL-NH2 [Pleurecidin] | 1.17(0.43) µg mL^−1 | 9.38(3.46) µg mL^−1 | 2.34(0.86) µg mL^−1 | 9.38(3.46) µg mL^−1 | 9.38(3.46) µg mL^−1 | 4.69(1.73) µg mL^−1 | 9.38(3.46) µg mL^−1 | 4.69(1.73) µg mL^−1 | 2.34(0.86) µg mL^−1 | 9.38(3.46) µg mL^−1 | 4.69(1.73) µg mL^−1 | 9.38(3.46) µg mL^−1 | 18.75(6.92) µg mL^−1 | –
4 | CC[C@H](C)[C@H](NC(=O)[C@@H](N)CSC1CC(=O)N(CC2CCC(C(=O)N(C)[C@H](CC(C)C)C(=O)N[C@H]3C(=O)N[C@@H](CC(N)=O)C(=O)N[C@H]4C(=O)N[C@H]5C(=O)N[C@H](C(=O)N[C@H](C(=O)O)c6cc(O)cc(O)c6-c6cc5ccc6O)[C@H](O)c5ccc(c(Cl)c5)Oc5cc4cc(c5O[C@@H]4O[C@H](CO)[C@@H](O)[C@H](O)[C@H]4O[C@H]4C[C@](C)(N)[C@H](O)[C@H](C)O4)Oc4ccc(cc4Cl)[C@H]3O)CC2)C1=O)C(=O)N[C@@H](CC(C)C)C(=O)N[C@@H](CCCNC(=N)N)C(=O)N[C@@H](Cc1c[nH]c2ccccc12)C(=O)N1CCC[C@H]1C(=O)N[C@@H](Cc1c[nH]c2ccccc12)C(=O)N[C@@H](Cc1c[nH]c2ccccc12)C(=O)N1CCC[C@H]1C(=O)N[C@@H](Cc1c[nH]c2ccccc12)C(=O)N[C@@H](CCCNC(=N)N)C(=O)N[C@@H](CCCNC(=N)N)C(=O)N[C@@H](CCCCN)C(N)=O (some centres unmarked) [Vm-Omi] | 0.78(0.22) µg mL^−1 | 1.17(0.33) µg mL^−1 | 4.69(1.32) µg mL^−1 | >100(>28) µg mL^−1 | 0.78(0.22) µg mL^−1 | 75(21.13) µg mL^−1 | 75(21.13) µg mL^−1 | >100(>28) µg mL^−1 | >100(>28) µg mL^−1 | >100(>28) µg mL^−1 | >100(>28) µg mL^−1 | >100(>28) µg mL^−1 | >100(>28) µg mL^−1 | –
5 | CC(C)C[C@H](NC(=O)[C@H](Cc1ccc(O)cc1)NC(=O)[C@H](Cc1c[nH]cn1)NC(=O)[C@@H](NC(=O)[C@H](CC(C)C)NC(=O)[C@H](C)NC(=O)[C@H](C)NC(=O)[C@H](CCCCN)NC(=O)CNC(=O)[C@@H](NC(=O)[C@H](Cc1c[nH]cn1)NC(=O)[C@H](CCCCN)NC(=O)CNC(=O)[C@@H](NC(=O)[C@H](Cc1c[nH]cn1)NC(=O)[C@H](C)NC(=O)[C@H](C)NC(=O)[C@H](CCCCN)NC(=O)[C@H](CCCCN)NC(=O)[C@H](Cc1ccccc1)NC(=O)[C@H](Cc1ccccc1)NC(=O)[C@H](CO)NC(=O)CNC(=O)[C@H](Cc1c[nH]c2ccccc12)NC(=O)CNC(=O)[C@@H](N)CSC1CC(=O)N(CC2CCC(C(=O)N(C)[C@H](CC(C)C)C(=O)N[C@H]3C(=O)N[C@@H](CC(N)=O)C(=O)N[C@H]4C(=O)N[C@H]5C(=O)N[C@H](C(=O)N[C@H](C(=O)O)c6cc(O)cc(O)c6-c6cc5ccc6O)[C@H](O)c5ccc(c(Cl)c5)Oc5cc4cc(c5O[C@@H]4O[C@H](CO)[C@@H](O)[C@H](O)[C@H]4O[C@H]4C[C@](C)(N)[C@H](O)[C@H](C)O4)Oc4ccc(cc4Cl)[C@H]3O)CC2)C1=O)C(C)C)C(C)C)[C@@H](C)O)C(N)=O (some centres unmarked) [Vm-Ple] | – | – | – | – | – | – | – | – | – | – | – | – | – | MIC ([1]; S. aureus CMCC26003, MH broth, 37 °C, 18 h, OD600): 0.78(0.17) µg mL^−1; MIC ([2]; S. aureus ATCC29213, MH broth, 37 °C, 18 h, OD600): 4.69(1.05) µg mL^−1; MIC ([3]; MRSA ATCC43300, MH broth, 37 °C, 18 h, OD600): 4.69(1.05) µg mL^−1; MIC ([4]; S. aureus 15772, MH broth, 37 °C, 18 h, OD600): 2.34(0.52) µg mL^−1; MIC ([5]; S. aureus 15192, MH broth, 37 °C, 18 h, OD600): 2.34(0.52) µg mL^−1; MIC ([6]; VRSA 11, MH broth, 37 °C, 18 h, OD600): 9.38(2.10) µg mL^−1; MIC ([7]; VRSA 52, MH broth, 37 °C, 18 h, OD600): 9.38(2.10) µg mL^−1; MIC ([8]; E. faecalis ATCC29212, MH broth, 37 °C, 18 h, OD600): 18.75(4.19) µg mL^−1; MIC ([9]; E. coli ATCC25922, MH broth, 37 °C, 18 h, OD600): 4.69(1.05) µg mL^−1; MIC ([10]; A. baumannii ATCC19606, MH broth, 37 °C, 18 h, OD600): 2.34(0.52) µg mL^−1; MIC ([11]; K. pneumoniae 9883, MH broth, 37 °C, 18 h, OD600): 37.5(8.37) µg mL^−1; MIC ([12]; P. aeruginosa ATCC27853, MH broth, 37 °C, 18 h, OD600): >100(>22.33) µg mL^−1; MIC ([13]; S. typhimurium ATCC14028, MH broth, 37 °C, 18 h, OD600): 75(16.75) µg mL^−1
